Measured values as given in patent US12241097B2, “Compositions and methods for adoptive cell therapy for cancer” (MEMORIAL SLOAN KETTERING CANCER CENTER, priority 2017, dated 2025).

What was measured:
Jurkat (T cell) = assay: in vitro cytotoxicity, Jurkat; type: cell-based, human; conditions: T cell lines (Jurkat)
primary T-cells = assay: in vitro cytotoxicity, primary T cells; type: cell-based, human
PC9 cells = assay: PC9 viability, CellTitre-Glo, 48 hours; type: cell-based, human
Protocol: FIG. 14 provides exemplary data showing that Human T cells, but not cancer cells, are resistant to Erlotinib. (A) Human Jurkat T cells (red circle) and human non-small cell lung carcinoma cell lines PC9 (black square) and HCC827 (blue triangle) were treated with increasing concentrations of the receptor tyrosine kinase inhibitor Erlotinib. […] Cell viability was measured at 48 hours by CellTitre-Glo® luminescence.
FIG. 14 provides exemplary data showing that Human T cells, but not cancer cells, are resistant to Erlotinib. Human Jurkat T cells, primary T cells and human non-small cell lung carcinoma cell lines PC9 and HCC827 were treated with increasing concentrations of the receptor tyrosine kinase inhibitor Erlotinib. […] PC9 cells were incubated in the presence of Erlotinib, P-Erlotinib, or P-Erlotinib in the presence of purified CPG2. Cell viability was measured at 48 hours by CellTitre-Glo® luminescence.

HCC827 = HCC827 viability with Erlotinib; type: cell-based, human
Protocol: Human Jurkat T cells, primary T cells and human non-small cell lung carcinoma cell lines PC9 and HCC827 were treated with increasing concentrations of the receptor tyrosine kinase inhibitor Erlotinib. […] Cell viability was measured at 48 hours by CellTitre-Glo® luminescence.

Jurkat T cells [1] = assay: Jurkat viability with prodrug and supernatant from CPG2-secreting HEK293T cells; type: cell-based, human; conditions: for cell viability with CPG2 supernatant: 48 hours, control media did not
Protocol: (§1) The in vitro cytotoxicity of AMS (structure 1c) and its prodrug variant (structure 1a) was tested against a variety of cell lines using a CellTitre Glo® assay (Promega, Madison, WI). […] Moreover, co-treatment with the prodrug and supernatant from CPG2-transfected HEK293T cells (see Example 3) led to cytotoxicity approaching that of the free drug (50 nM), consistent with CPG2-mediated cleavage of the prodrug to release the active parent drug. […] In contrast, AMS prodrug 1a was not activated by HEK293T cells expressing CPG intracellularly, which likely attributed to poor cell-penetrance of the prodrug due to the free bis-anionic gluatamate moiety.
Jurkat T cells were exposed to increasing concentrations of AMS (circle) or Pro-AMS with media alone (triangle) or supernatant from CPG2-secreting HEK293T cells (square). Cell viability was measured at 48 hours by CellTitre-Glo® luminescence assay.
Jurkat T cells were exposed to increasing concentrations of ZD2767P with media alone (triangle) or supernatant from CPG2-secreting HEK293T cells (square). Cell viability was measured at 48 hours by CellTitre-Glo® luminescence assay.

[2] = tested on: HEK293T cells expressing CPG2; assay: viability of HEK293T cells expressing CPG2 variants exposed to prodrug; type: cell-based, human
Protocol: as §1
Expression of CPG2 without a signal peptide (CPG2nosigp) was employed as a control. HEK293t cells stably transfected with CPG2 variants were exposed to P-AMS ([…]) for 48 hours and analyzed by bright field microscopy (FIG. 9A). Cells were exposed to varying concentrations of P-AMS and cell viability was analyzed at 48 hr post treatment (FIG. 9B).
(§2) The HA epitope tag permitted staining of surface-level CPG2 in cells expressing either the secreted or transmembrane forms of the enzyme (FIG. 22D). […] Cell viability was measured at 48 hours by CellTitre-Glo® luminescence.

Jurkat T cells [3] = assay: Jurkat viability with P-AMS and purified recombinant CPG2; type: cell-based, human; conditions: Jurkat viability at 48 hours
Protocol: FIG. 4 provides exemplary data showing activation of P-AMS (see FIG. 2) by recombinant CPG2 expressed and purified from E. coli. (A) Human Jurkat T cells were incubated with or without P-AMS in the presence of increasing concentration of purified CPG2. Cell viability was measured at 48 hours by CellTitre-Glo luminescence. (B) Recombinant CPG2 was exposed to various concentrations of glutamated AMS prodrug. Following incubation at 37° C. (0.5, 1, 2, and 4 hr.), the reaction was combined with Amplex® Red (converts free glutamate to a fluorescent species) and fluorescent emission was analyzed using a fluorescence multiwell plate scanner.
The CPG2-pET151 vector was transformed into BL21 star E. coli cells and induced with IPTG. Bacteria were homogenized in a French Press and purified by affinity chromatography over Ni++ beads using standard protocols. Imidazole was exchanged via PBS dialysis and protein was purified via desalting spin columns. The expressed and purified CPG2 was assayed to confirm that the active enzyme was a potent converter of glutamated prodrugs. […] Pro-AMS was activated by recombinant CPG2 in vitro. Human Jurkat T cells were incubated with or without P-AMS in the presence of increasing concentration of purified CPG2. Cell viability of the Jurkat cells was measured at 48 hours by CellTitre-Glo® luminescence. […]

SET2 cells [4] = assay: SET2 viability with prodrug and supernatant from CPG2-secreting HEK293t cells; type: cell-based; conditions: comparable to AMS at around 100 nM
Protocol: SET2 cells were exposed to increasing concentrations of AMS (square) or glut-AMS with media alone (− control, triangle) or supernatant from CPG2-secreting HEK293t cells (circle). Cell viability was measured by CellTitre-Glo® luminescence assay.
as §2

[5] = tested on: lung adenocarcinoma cells (HCC827); assay: coculture of 293t^CPGTM cells with HCC827 plus erlotinib prodrug; type: cell-based; conditions: 120 hr, flow cytometry
Protocol: FIG. 15 provides exemplary data showing the pro-drug activity of 293T cells expressing transmembrane CPG2. GFP+293t^CPGTM cells were co-cultured with lung adenocarcinoma cells (HCC827) at various ratios (293t^CPGTM:HCC827) and the erlotinib prodrug (p-erlotinib) was added. (A) Cells were analyzed at 120 hour by flow cytometry and % GFP was calculated. (B) Ratio of 293t^CPGTM cells to HCC827 cells was calculated for each cell ratio.
The retroviral constructs encoding the anti-CD19 CAR and transmembrane CPG2 enzyme described above were transduced into 293T cells to test the conversion activity of transmembrane CPG2 for an Erlotinib prodrug. GFP+293t^CPGTM cells were co-cultured with lung adenocarcinoma cells (HCC827) at various ratios (293t^CPGTM:HCC827) and the erlotinib prodrug (p-erlotinib) was added. Cells were analyzed at 120 hr. by flow cytometry (FIG. 15A) and the percentage of GFP cells and the ratio of 293t^CPGTM cells to HCC827 cells was calculated for each cell ratio (FIG. 15B).

HEK293T = assay: in vitro cytotoxicity, HEK293T; type: cell-based, human; conditions: HEK293-t; unit inferred; read-out: IC50 (cell selectivity data), ceph-AMS
Skov-3 = assay: cell viability, Skov-3; type: cell-based, human
[6] = tested on: myeloid leukemia cell line SET2; assay: cytotoxicity, SET2 (CellTitre Glo); type: cell-based; conditions: unit inferred, read-out: IC50 (cell selectivity data), ceph-AMS
SET2 cells [7] = assay: SET2 viability with ceph-AMS and Beta-lactamase supernatant; type: cell-based; conditions: comparable to AMS at around 100 nM

`C#Cc1cccc(Nc2ncnc3cc(OCCOC)c(OCCOC)cc23)c1` [Erlotinib, reference compound] was tested, and the “response to increasing concentrations” value (Jurkat (T cell)) was “resistance”, the “response to increasing concentrations” value (primary T-cells; primary T cells) was “resistance” and the “cell death with increasing concentrations” value (PC9 cells; PC9) was “significant cell death”. The “cell death with increasing concentrations” value (HCC827) was “significant cell death”.
In the case of `NS(=O)(=O)OC[C@H]1O[C@@H](n2cnc3c(NC(=O)N[C@@H](CCC(=O)O)C(=O)O)ncnc32)[C@H](O)[C@@H]1O` [P-AMS, ((9-((2R,3R,4S,5R)-3,4-dihydroxy-5-((sulfamoyloxy)methyl)tetrahydrofuran-2-yl)-9H-purin-6-yl)carbamoyl)-L-glutamic Acid], the “cell viability with CPG2 supernatant” value (Jurkat T cells [1]) is reported as “significant decrease in cell viability”, the IC50 (Jurkat T cells [1]; Homo sapiens, with CPG2 supernatant, read-out: IC50, co-treatment with supernatant from CPG2-transfected HEK293T cells) is reported as 0.05 µM and the “cell death of HEK293T cells expressing CPG2” value ([2]; cell-secreted and transmembrane CPG2, 48 hours, control construct did not) is reported as “significant cell death”. The “activation by HEK293T cells expressing CPG intracellularly” value ([2]; intracellular CPG) was “not activated”, the “activation by recombinant CPG2” value (Jurkat T cells [3]) was “activated” and the “cell viability with CPG2 supernatant” value (SET2 cells [4]) was “significant decrease in cell viability”.
For `C#Cc1cccc(N(Cc2ccc(NC(=O)N[C@@H](CCC(=O)O)C(=O)O)cc2)c2ncnc3cc(OCCOC)c(OCCOC)cc23)c1` [P-Erlotinib], the “toxicity of prodrug alone” value (PC9 cells; PC9, 1 μM, 48 hours) was “no toxicity”, the “activity of prodrug cleaved by purified CPG2” value (PC9 cells; PC9, with purified CPG2) was “comparable activity to the active drug” and the “killing after conversion by transmembrane CPG2” value [5] was “kills the target cancer cell”.
For `O=C(O)CC[C@H](NC(=O)Oc1ccc(N(CCI)CCI)cc1)C(=O)O` [ZD2767P, reference compound], the “cell viability with CPG2 supernatant” value (Jurkat T cells [1]) was “significant decrease in cell viability”.
In the case of `Nc1ncnc2c1ncn2[C@@H]1O[C@H](COS(=O)(=O)NCC2=C(C(=O)O)N3C(=O)[C@@H](NC(=O)Cc4cccs4)[C@H]3SC2)[C@@H](O)[C@H]1O` [ceph-AMS], the IC50 (HEK293T) is reported as 2 µM, the IC50 (primary T-cells; Human T cell, unit inferred, read-out: IC50 (cell selectivity data), ceph-AMS) is reported as > 1.25 µM and the “Selective Index” value (Skov-3) is reported as 3.6. The IC50 (Skov-3; unit inferred, read-out: IC50 (cell selectivity data), ceph-AMS) was > 1.25 µM, the IC50 [6] was ~2.2 µM and the “cell viability with Beta-lactamase supernatant” value (SET2 cells [7]) was “significant decrease in cell viability”.
